Test results as given in patent US12201592B2, “Combinations of IRS/STAT3 dual modulators and anti-cancer agents for treating cancer” (TYRNOVO LTD., priority 2015, dated 2025).

Columns and labels:
[1] = tested on: pancreatic cancer metastasis from the liver; experiment: PDX efficacy study with Gemcitabine (Example 10); type: in vivo, NodScid mice
Description: Experimental system: Patient-derived xenograft (PDX) of a biopsy of pancreatic cancer metastasis from the liver, subcutaneous implanted into NodScid mice.
• Implantation of pancreatic cancer metastasis from the liver RA_160 tumor biopsy graft (P5) into NodScid mice for efficacy study: Several weeks following implantation of pancreatic cancer liver metastasis biopsy graft in mice, tumor cells (P5) were injected into NodScid mice (generated by in-house breeding), using the same procedure described above. • Onset of tumor growth (palpable tumor mass) was detected ten days following cell injection. A week later (on da0), 19 mice with average tumor size of 90 mm^3 initiated treatments with Gemcitabine 25 mg/kg IP twice a week for 35 days. […] On day21 the average tumor size in Gemcitabine-treated group was ˜5 mm^3 as compared to 1400 mm^3 in the control group. • 42 days following initiation of treatment with Gemcitabine resistance developed and regressed tumors progressed. Four days later 16 mice of the Gemcitabine-treated group with average tumor volume of ˜110 mm^3 were divided to two groups as follows. II. Treatments
Treatment groups, following resistance to Gemcitabine has been acquired, included: • 1. Gemcitabine 25 mg/kg IP twice a week • 2. Gemcitabine 25 mg/kg IP+Compound D 70 mg/kg IV, twice a week.

[2] = tested on: tumor pieces of pancreatic cancer liver metastasis PDX; experiment: Culture of tumor pieces excised at the end of the experiment (Example 10); type: cell-based; details: three tumors per group; fixed and stained nine days later
Description: At the end of the experiment, tumor pieces, similar in size, from three tumors per group were cultured in separate plates to test their viability and proliferative activity.

## Nc1ccn([C@@H]2O[C@H](CO)[C@@H](O)C2(F)F)c(=O)n1 [Gemcitabine]
[1]; Gemcitabine 25 mg/kg IP twice a week, control 1400 mm^3
  average tumor size on day21: ~5 mm^3
[1]; Gemcitabine 25 mg/kg IP twice a week, start 90 mm^3
  tumor response on day11: all tumors in Gemcitabine-treated mice regressed
[1]; start ~110 mm^3, after resistance was acquired
  response of Gemcitabine-resistant tumors: all tumors treated with Gemcitabine progressed
[1]; treated for 35 days
  time from initiation of treatment until resistance developed: 42 days
[2]
  proliferative activity of cultured tumor pieces: massive proliferation
